Target: T1, human Kv7.2 (Homo sapiens, UniProt O43526)
T1 construct: expressed in transfected cells
Assay: activation (potentiation) of Kv7.2 current, SyncroPatch 384 electrophysiology in CHO cells stably expressing human Kv7.2
Assay type: cell-based
Details: human Kv7.2 in CHO cells; in presence of 5.6 μM zinc pyrithione; % activation relative to 30 μM ML-213
Procedure, shortened: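 CHO cells stably expressing human Kv7.2 were recorded by automated patch clamp, holding at −60 mV with steps to −30, 40 and −90 mV; current was read at the −90 mV step. Compounds were added after 5.6 μM zinc pyrithione pre-activation. % activation was normalised between 30 μM ML-213 (max) and TEA+XE-991 (leak), with EC50 from a logistic fit.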

T1 sequence (O43526 whole entry): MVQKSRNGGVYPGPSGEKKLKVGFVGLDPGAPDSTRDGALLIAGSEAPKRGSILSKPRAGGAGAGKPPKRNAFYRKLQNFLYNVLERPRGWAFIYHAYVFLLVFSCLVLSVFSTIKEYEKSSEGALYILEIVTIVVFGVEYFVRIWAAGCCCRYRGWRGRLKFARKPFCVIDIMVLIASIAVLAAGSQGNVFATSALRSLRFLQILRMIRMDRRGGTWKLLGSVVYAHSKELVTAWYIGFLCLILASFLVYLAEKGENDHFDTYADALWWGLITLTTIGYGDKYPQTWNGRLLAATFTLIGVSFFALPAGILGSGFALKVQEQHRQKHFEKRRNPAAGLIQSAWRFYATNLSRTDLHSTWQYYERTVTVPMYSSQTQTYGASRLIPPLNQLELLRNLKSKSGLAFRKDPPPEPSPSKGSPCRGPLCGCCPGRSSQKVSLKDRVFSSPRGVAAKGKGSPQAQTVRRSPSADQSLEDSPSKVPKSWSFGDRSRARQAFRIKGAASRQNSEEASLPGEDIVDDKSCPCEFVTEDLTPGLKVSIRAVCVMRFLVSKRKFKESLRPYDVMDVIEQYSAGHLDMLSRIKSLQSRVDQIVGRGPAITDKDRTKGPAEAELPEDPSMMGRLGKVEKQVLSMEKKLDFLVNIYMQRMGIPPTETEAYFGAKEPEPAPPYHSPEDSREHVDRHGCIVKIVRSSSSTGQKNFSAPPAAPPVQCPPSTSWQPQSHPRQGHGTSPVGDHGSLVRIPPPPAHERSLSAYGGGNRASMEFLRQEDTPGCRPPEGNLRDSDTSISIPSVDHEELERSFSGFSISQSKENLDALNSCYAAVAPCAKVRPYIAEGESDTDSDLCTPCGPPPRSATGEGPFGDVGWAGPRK

Row | Structure (SMILES) | EC50 [nM]
1 | CO[C@@](C)(CNC(=O)C1CC12CCOCC2)c1cccc(Cl)c1 (stereo partly drawn) [Example 84, N-[(2R)-2-(3-chlorophenyl)-2-methoxy-propyl]-6-oxaspiro[2.5]octane-2-carboxamide] | 130
2 | N#Cc1cccc(C2(CNC(=O)[C@H]3C[C@@H]3c3ccccc3)COC2)c1 [Example 85, (1S,2S)—N-[[3-(3-cyanophenyl)oxetan-3-yl]methyl]-2-phenyl-cyclopropanecarboxamide] | 1140
3 | O=C(NC(CO)C1(c2cccc(Cl)c2)CC1)[C@H]1C[C@@H]1c1ccccc1 (stereo partly drawn) [Example 86, (1S,2S)—N-[1-[1-(3-chlorophenyl)cyclopropyl]-2-hydroxy-ethyl]-2-phenyl-cyclopropanecarboxamide] | 5620
4 | N#Cc1cccc(C2(CNC(=O)[C@H]3C[C@@H]3c3ccccc3)OCC2(F)F)c1 (stereo partly drawn) [Example 87, (1S,2S)—N-[[2-(3-cyanophenyl)-3,3-difluoro-oxetan-2-yl]methyl]-2-phenyl-cyclopropanecarboxamide] | 60
5 | N#Cc1cccc(C2(CNC(=O)[C@H]3C[C@@H]3c3ccccc3)CCC(=O)O2)c1 (stereo partly drawn) [Example 88, (1S,2S)—N-[[2-(3-cyanophenyl)-5-oxo-tetrahydrofuran-2-yl]methyl]-2-phenyl-cyclopropanecarboxamide] | 200
6 | N#Cc1cccc(C2(CNC(=O)CC3CCCCC3)COC2)c1 [Example 89, N-[[3-(3-cyanophenyl)oxetan-3-yl]methyl]-2-cyclohexyl-acetamide] | 2790
7 | N#Cc1cccc(C2(CNC(=O)CC3CCCCC3)CCC(=O)O2)c1 (stereo not shown) [Example 90, N-[[2-(3-cyanophenyl)-5-oxo-tetrahydrofuran-2-yl]methyl]-2-cyclohexyl-acetamide] | 960
8 | N#Cc1cccc(C2(CNC(=O)CC3CCCCC3)OCC2(F)F)c1 (stereo not shown) [Example 91, N-[[2-(3-cyanophenyl)-3,3-difluoro-oxetan-2-yl]methyl]-2-cyclohexyl-acetamide] | 1120
9 | O=C(NCC(CCO)c1cccc(Cl)c1)[C@H]1C[C@@H]1c1ccccc1 (stereo partly drawn) [Example 92, (1S,2S)—N-[2-(3-chlorophenyl)-4-hydroxy-butyl]-2-phenyl-cyclopropanecarboxamide] | 1810
10 | N#Cc1cccc([C@]2(CNC(=O)CC3CCCCC3)CCO2)c1 [Example 93, N-[[(2S)-2-(3-cyanophenyl)oxetan-2-yl]methyl]-2-cyclohexyl-acetamide] | 5430
11 | N#Cc1cccc([C@@]2(CNC(=O)CC3CCCCCC3)CCO2)c1 [Example 94, N-[[(2R)-2-(3-cyanophenyl)oxetan-2-yl]methyl]-2-cycloheptyl-acetamide] | 5620
12 | N#Cc1cccc([C@]2(CNC(=O)[C@H]3C[C@@H]3C(F)(F)F)CCO2)c1 [Example 95, (1S,2S)—N-[[(2S)-2-(3-cyanophenyl)oxetan-2-yl]methyl]-2-(trifluoromethyl)cyclopropanecarboxamide] | 2550
13 | N#Cc1cccc([C@]2(CNC(=O)C3C(F)(F)C34CCC4)CCO2)c1 (stereo partly drawn) [Example 96, N-[[(2S)-2-(3-cyanophenyl)oxetan-2-yl]methyl]-2,2-difluoro-spiro[2.3]hexane-1-carboxamide] | 8540
14 | N#Cc1cccc([C@@]2(CNC(=O)CC3CC4CCC3C4)CCO2)c1 (stereo partly drawn) [Example 97, N-[[(2R)-2-(3-cyanophenyl)oxetan-2-yl]methyl]-2-norboman-2-yl-acetamide] | 1280
15 | N#Cc1cccc([C@@]2(CNC(=O)C3CC4CCC3CC4)CCO2)c1 (stereo partly drawn) [Example 98, N-[[(2R)-2-(3-cyanophenyl)oxetan-2-yl]methyl]bicyclo[2.2.2]octane-2-carboxamide] | 6650
16 | O=C(NCC1(c2cccc(OC(F)F)n2)CCO1)[C@H]1C[C@@H]1c1ccccc1 (stereo partly drawn) [Example 99, (1S,2S)—N-[[2-[6-(difluoromethoxy)-2-pyridyl]oxetan-2-yl]methyl]-2-phenyl-cyclopropanecarboxamide] | 230
17 | N#Cc1cccc([C@]2(CNC(=O)C3CCC34CCC4)CCO2)c1 (stereo partly drawn) [Example 100, N-[[(2S)-2-(3-cyanophenyl)oxetan-2-yl]methyl]spiro[3.3]heptane-3-carboxamide] | 9760
18 | N#Cc1cccc([C@]2(CNC(=O)C3CCC4(CCC4)C3)CCO2)c1 (stereo partly drawn) [Example 102, N-[[(2S)-2-(3-cyanophenyl)oxetan-2-yl]methyl]spiro[3.4]octane-7-carboxamide] | 3010
19 | N#Cc1cccc([C@]2(CNC(=O)C(F)CC3CCCC3)CCO2)c1 (stereo partly drawn) [Example 103, N-[[(2S)-2-(3-cyanophenyl)oxetan-2-yl]methyl]-3-cyclopentyl-2-fluoro-propanamide] | 6140
20 | N#Cc1cccc([C@]2(CNC(=O)C3CCCC34CCC4)CCO2)c1 (stereo partly drawn) [Example 104, N-[[(2S)-2-(3-cyanophenyl)oxetan-2-yl]methyl]spiro[3.4]octane-8-carboxamide] | 510

Row | Structure (SMILES) | EC50 [nM]
21 | N#Cc1cccc([C@]2(CNC(=O)C3CC4(C3)CC43CCC3)CCO2)c1 (stereo partly drawn) [Example 105, N-[[(2S)-2-(3-cyanophenyl)oxetan-2-yl]methyl]dispiro[3.0.3^5.1^4]nonane-7-carboxamide] | 910
22 | N#Cc1cccc([C@]2(CNC(=O)C3CC34CCOCC4)CCO2)c1 (stereo partly drawn) [Example 106, N-[[(2S)-2-(3-cyanophenyl)oxetan-2-yl]methyl]-6-oxaspiro[2.5]octane-2-carboxamide] | 4080
23 | N#Cc1cccc([C@]2(CNC(=O)CC3CC4CCC3C4)CCO2)c1 (stereo partly drawn) [Example 108, N-[[(2S)-2-(3-cyanophenyl)oxetan-2-yl]methyl]-2-norbornan-2-yl-acetamide] | 410
24 | N#Cc1cccc([C@]2(CNC(=O)CC34CCC(CC3)C4)CCO2)c1 [Example 109, N-[[(2S)-2-(3-cyanophenyl)oxetan-2-yl]methyl]-2-norbornan-1-yl-acetamide] | 710
25 | N#Cc1cccc([C@]2(CNC(=O)CC3(O)CC4CCC3C4)CCO2)c1 (stereo partly drawn) [Example 111, N-[[(2S)-2-(3-cyanophenyl)oxetan-2-yl]methyl]-2-(2-hydroxynorbornan-2-yl)acetamide] | 2010
26 | N#Cc1cccc([C@]2(CNC(=O)[C@H]3C[C@@H]3C3CCCC3)CCO2)c1 [Example 112, (1S,2R)—N-[[(2S)-2-(3-cyanophenyl)oxetan-2-yl]methyl]-2-cyclopentyl-cyclopropanecarboxamide] | 90
27 | O=C(NCC1(c2cccc(OC(F)F)n2)CCO1)C1CC12CCOCC2 (stereo not shown) [Example 115, N-[[2-[6-(difluoromethoxy)-2-pyridyl]oxetan-2-yl]methyl]-6-oxaspiro[2.5]octane-2-carboxamide] | 2820
28 | N#Cc1cccc([C@]2(CNC(=O)CC3CC4(CCC4)C3)CCO2)c1 [Example 116, N-[[(2S)-2-(3-cyanophenyl)oxetan-2-yl]methyl]-2-spiro[3.3]heptan-2-yl-acetamide] | 610
29 | O=C(CC1CCCCC1)NCC1(c2ccnc(OC(F)F)c2)CCO1 (stereo not shown) [Example 117, 2-cyclohexyl-N-[[2-[2-(difluoromethoxy)-4-pyridyl]oxetan-2-yl]methyl]acetamide] | 4330
30 | O=C(NCC1(c2ccnc(OC(F)F)c2)CCO1)C1CC12CCC(F)(F)CC2 (stereo not shown) [Example 118, N-[[2-[2-(difluoromethoxy)-4-pyridyl]oxetan-2-yl]methyl]-6,6-difluoro-spiro[2.5]octane-2-carboxamide] | 5520
31 | O=C(CC1CCCCC1)NCC1(c2cccc(OC(F)F)n2)CCO1 (stereo not shown) [Example 119, 2-cyclohexyl-N-[[2-[6-(difluoromethoxy)-2-pyridyl]oxetan-2-yl]methyl]acetamide] | 660
32 | O=C(NCC1(c2cccc(OC(F)F)n2)CCO1)C1CC12CCC(F)(F)CC2 (stereo not shown) [Example 120, N-[[2-[6-(difluoromethoxy)-2-pyridyl]oxetan-2-yl]methyl]-6,6-difluoro-spiro[2.5]octane-2-carboxamide] | 260
33 | CCc1cc(C2(CNC(=O)[C@H]3C[C@@H]3c3ccccc3)CCO2)ccn1 (stereo partly drawn) [Example 121, (1S,2S)—N-[[2-(2-ethyl-4-pyridyl)oxetan-2-yl]methyl]-2-phenyl-cyclopropanecarboxamide] | 2510
34 | O=C(NCC1(c2cccc(OC(F)F)n2)CCO1)C1CC12CCCCC2 (stereo not shown) [Example 123, N-[[2-[6-(difluoromethoxy)-2-pyridyl]oxetan-2-yl]methyl]spiro[2.5]octane-2-carboxamide] | 170
35 | N#Cc1cc(C2(CNC(=O)[C@H]3C[C@@H]3c3ccccc3)CCO2)ccc1F (stereo partly drawn) [Example 125, (1S,2S)—N-[[2-(3-cyano-4-fluoro-phenyl)oxetan-2-yl]methyl]-2-phenyl-cyclopropanecarboxamide] | 2190
36 | N#Cc1cccc([C@]2(CNC(=O)[C@H]3C[C@@H]3c3ccc(Br)cc3)CCO2)c1 [Example 128, (1S,2S)-2-(4-bromophenyl)-N-[[(2S)-2-(3-cyanophenyl)oxetan-2-yl]methyl]cyclopropanecarboxamide] | 470
37 | O=C(NCC1(c2ccnc(OC(F)F)c2)CCO1)[C@H]1C[C@@H]1C(F)(F)F (stereo partly drawn) [Example 129, (1S,2S)—N-[[2-[2-(difluoromethoxy)-4-pyridyl]oxetan-2-yl]methyl]-2-(trifluoromethyl)cyclopropanecarboxamide] | 4240
38 | O=C(NCC1(c2cccc(OC(F)F)n2)CCO1)[C@H]1C[C@@H]1C(F)(F)F (stereo partly drawn) [Example 130, (1S,2S)—N-[[2-[6-(difluoromethoxy)-2-pyridyl]oxetan-2-yl]methyl]-2-(trifluoromethyl)cyclopropanecarboxamide] | 680
39 | N#Cc1cccc([C@]2(CNC(=O)C(F)C3CC4CCC3C4)CCO2)c1 (stereo partly drawn) [Example 131, N-[[(2S)-2-(3-cyanophenyl)oxetan-2-yl]methyl]-2-fluoro-2-norbornan-2-yl-acetamide] | 5950
40 | O=C(CC1(C(F)(F)F)CC1)NCC1(c2cccc(OC(F)F)n2)CCO1 (stereo not shown) [Example 132, N-[[2-[6-(difluoromethoxy)-2-pyridyl]oxetan-2-yl]methyl]-2-[1-(trifluoromethyl)cyclopropyl]acetamide] | 8240

— patent US20260308149A1, “NOVEL CARBOXAMIDE DERIVATIVES” (ANGELINI PHARMA S.P.A., priority 2023, published 2026)
